Reference: patent US9643999B2 (Bristol-Myers Squibb Company, priority 2012, dated 2017)
Like-named read-outs stand apart in the source and are kept apart here.

Assays:
HCV genotype 1b replicon = test: HCV replicon luciferase reporter assay, genotype 1b (LE_1b); format: cell-based; settings: Hepatitis C virus, 72 h, HUH-7 cells, genotype 1b (Con1) replicon, 3 days incubation, Renilla luciferase
In short: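 HUH-7 cells stably carrying Renilla luciferase replicons (1b Con1 with S1179I; 1a H77 with P1496L and S2204I), 3.0×10^3 cells/well in 4% FCS, 0.5% DMSO, twenty-point 3-fold titration. After 3 days at 37° C., luminescence read with EnduRen (7.5 μM final, 2 hrs). EC50 from four-parameter logistic fit; CC50 from multiplexed Cell Titer-Blue (8 hrs).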

HCV genotype 1a replicon = test: HCV replicon luciferase reporter assay, genotype 1a (LE_1a); format: cell-based; settings: Hepatitis C virus, 72 h, HUH-7 cells, genotype 1a H77 replicon, 3 days incubation, Renilla luciferase

Work on `Cc1cn2c(n1)nc(O[C@@H]1C[C@H]3C(=O)N[C@]4(C(=O)NS(=O)(=O)C5(C)CC5)C[C@H]4/C=C\CC[C@@H](C)C[C@@H](C)[C@H](NC(=O)OC(C)(C)C(F)(F)F)C(=O)N3C1)c1cc(Cl)ccc12` [Compound 6135] yielded an EC50 (HCV genotype 1b replicon; read-out: LE_1b (EC50, range)) of 0.51 to 1 nM and an EC50 (HCV genotype 1a replicon; read-out: LE_1a (EC50, range)) of 1.01 to 5 nM.
`[2H]C([2H])([2H])C1(S(=O)(=O)NC(=O)[C@@]23C[C@H]2/C=C\CC[C@@H](C)C[C@@H](CC)[C@H](NC(=O)OC(C)(C)C(F)F)C(=O)N2C[C@H](Oc4nccc5cc(OCC)c(F)cc45)C[C@H]2C(=O)N3)CC1` [Compound 5521] was tested, and the EC50 (HCV genotype 1b replicon; read-out: LE_1b (EC50)) was 0.47 nM, the EC50 (HCV genotype 1b replicon; read-out: LE_1b (EC50, range)) was 0.1 to 0.5 nM and the EC50 (HCV genotype 1a replicon; read-out: LE_1a (EC50)) was 1.23 nM. It also gave an EC50 (HCV genotype 1a replicon; read-out: LE_1a (EC50, range)) of 1.01 to 5 nM.
Work on `CC[C@@H]1C[C@H](C)CC/C=C\[C@@H]2C[C@@]2(C(=O)NS(=O)(=O)C2CC2)NC(=O)[C@@H]2C[C@@H](Oc3nc4cc(OC)ccc4nc3C3CC3)CN2C(=O)[C@H]1NC(=O)OC(C)(C)C` [Compound 4307] yielded an EC50 (HCV genotype 1b replicon; read-out: LE_1b (EC50, range)) of 1.01 to 5 nM and an EC50 (HCV genotype 1a replicon; read-out: LE_1a (EC50, range)) of 1.01 to 5 nM.
`CC[C@@H]1C[C@H](C)CC/C=C\[C@@H]2C[C@@]2(C(=O)NS(=O)(=O)C2CC2)NC(=O)[C@@H]2C[C@@H](Oc3nc4ccc(OC)cc4nc3C3CC3)CN2C(=O)[C@H]1NC(=O)OC(C)(C)C(F)(F)F` [Compound 4308] showed an EC50 (HCV genotype 1b replicon; read-out: LE_1b (EC50, range)) of 5.01 to 35 nM and an EC50 (HCV genotype 1a replicon; read-out: LE_1a (EC50, range)) of 5.01 to 35 nM.
`[2H]C([2H])([2H])C1(S(=O)(=O)NC(=O)[C@@]23C[C@H]2/C=C\CC[C@@H](C)C[C@@H](CC)[C@H](NC(=O)OC(C)(C)C(F)(F)F)C(=O)N2C[C@H](Oc4nccc5cc(OC)c(F)cc45)C[C@H]2C(=O)N3)CC1` [Compound 5511] was tested, and the EC50 (HCV genotype 1b replicon; read-out: LE_1b (EC50, range)) was 1.01 to 5 nM and the EC50 (HCV genotype 1a replicon; read-out: LE_1a (EC50, range)) was 1.01 to 5 nM.
Compound `CC[C@@H]1C[C@H](C)CC/C=C\[C@@H]2C[C@@]2(C(=O)NS(=O)(=O)C2(C)CC2)NC(=O)[C@@H]2C[C@@H](Oc3ncc(-c4cnco4)c4cc(OC)ccc34)CN2C(=O)[C@H]1NC(=O)OC(C)(C)C` [Compound 4285, tert-butyl((2R,6S,7R,9R,13aS,14aR,16aS,Z)-7-ethyl-2-((6-methoxy-4-(oxazol-5-yl)isoquinolin-1-yl)oxy)-9-methyl-14a-(((1-methylcyclopropyl)sulfonyl)carbamoyl)-5,16-dioxo-1,2,3,5,6,7,8,9,10,11,13a,14,14a,15,16,16a-hexadecahydrocyclopropa[e]pyrrolo[1,2-a][1,4]diazacyclopentadecin-6-yl)carbamate] has an EC50 (HCV genotype 1b replicon; read-out: LE_1b (EC50, range)) of 1.01 to 5 nM and an EC50 (HCV genotype 1a replicon; read-out: LE_1a (EC50, range)) of 1.01 to 5 nM.
